Consider 5 molecules from US12643901B2, “Compounds” (The Provost, Fellows, Foundation Scholars, and the other …, priority 2020, dated 2026).

In one assay the test system is RASFCs. Kind of assay: Synovial fibroblast assay, IL-6 ELISA. The class given is cell-based, human. Conditions: RASFCs treated with TNF (10 ng/ml), 200 μm compound, supernatants at 72 hr, n=3, DMSO vehicle = 100%. The procedure:
Synovial Fibroblast Assay
To assess the compounds in human rheumatoid arthritis samples the following protocol was employed:
Isolation of Primary Fibroblasts: RA synovial biopsies were digested with 1 mg/ml collagenase type 1 (Worthington Biochemical, Freehold, NJ, USA) in RPMI-1640 (Gibco-BRL, Paisley, UK) for 4 hr at 37° C. in humidified air with 5% CO2. Dissociated cells were grown to confluence in RPMI 1640, 10% FCS (Gibco-BRL), 10 ml of 1 mmol/l HEPES (Gibco-BRL), penicillin (100 units/ml; Bioscience), streptomycin (100 units/ml; Bioscience) and fungizone (0.25 μg/ml; Bioscience) before passaging. Cells were used between passages 3-8.
Compounds (200 μm) were tested on n=3 RASFCs
RASFCs were grown to 80% confluency in 48 well plates. RASFCs were treated with TNF (10 ng/ml) in the presence of 200 μm of each compound. Media was replaced after 24 h and fresh media and compound was added. Cell supernatants were collected at 72 hr time point. DMSO treated cells were used as a vehicle control (Red dotted line represents DMSO control).
IL-6 ELISA: Levels of pro-inflammatory cytokine IL6 were measured in cultured RASFC supernatants by specific ELISA (R&D systems, UK) according to manufacturer's conditions.
This assay measures the production of IL-6 as an indication of immune system activation: the lower the value the better from the point of view of alleviating RA symptoms. […]

For assay [1], the target named is T1, queuine-tRNA ribosyltransferase enzyme complex (hQTRT1:hQTRT2) (Homo sapiens, UniProt Q9BXR0).
T1 construct: polyhistidine (N); made in house; host or cells: E. coli BL21(DE3) tgt::Kmr
Kind of assay: [8-14C] guanine displacement assay (TGT substrate). The class given is biochemical. Conditions: 50 μM compound, 30 mins at 37° C., ≥5% is considered a positive substrate for TGT. The procedure: Compounds capable of acting as a queuine-tRNA ribosyltransferase enzyme complex substrate may be identified by use of a displacement assay as described below:
Production of [8-^14C] Guanine Labeled tRNA (tRNA*)
Before adding the 8-[^14C] guanine solution to the reaction the solution was neutralised with an equal volume (vol/vol) 0.01 M NaOH, as the [8-^14C] Guanine is supplied in 0.01 M HCl aqueous solution. In vitro synthesised human tyrosyl tRNA was prepared by T7 transcription in ultrapure nuclease-free water as described previously (Alqasem et al., 2020). Recombinant human QTRT1 enzyme containing an N-terminal polyhistidine tag and human QTRT2 containing a C-terminal TEV-Strep-Tag®II tag were produced in BL21(DE3) tgt::Kmr cells as described previously (Alqasem et al., 2020).
The reaction was incubated for 1 hour at 37° C. […] The tRNA* pellet was resuspended in 30 μL nuclease-free water and the concentration measured spectrophotometrically at A260. […]
After 30 mins the reactions were quenched by mixing with 2.5 ml ice-cold 10% trichloroacetic acid (TCA) and placed on ice for one hour to precipitate the tRNA. […] The vacuum manifold was disassembled, the filters recovered and dried again at room temperature before being placed in scintillation vials containing 10 ml of Ecoscint A and radioactivity levels measured by scintillation counting. […]

T1 sequence (Q9BXR0 whole entry): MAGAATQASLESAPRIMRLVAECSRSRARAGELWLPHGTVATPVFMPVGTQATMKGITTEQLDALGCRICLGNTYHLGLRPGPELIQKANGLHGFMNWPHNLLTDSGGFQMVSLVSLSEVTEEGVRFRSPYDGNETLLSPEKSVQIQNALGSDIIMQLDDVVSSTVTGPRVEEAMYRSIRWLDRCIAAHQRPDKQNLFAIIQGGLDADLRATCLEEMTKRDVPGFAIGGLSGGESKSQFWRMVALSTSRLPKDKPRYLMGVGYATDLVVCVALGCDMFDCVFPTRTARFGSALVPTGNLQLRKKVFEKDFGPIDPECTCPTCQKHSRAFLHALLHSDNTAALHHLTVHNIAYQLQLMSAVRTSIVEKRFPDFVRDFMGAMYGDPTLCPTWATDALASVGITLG
T1 sequence (Q9H974 whole entry partner): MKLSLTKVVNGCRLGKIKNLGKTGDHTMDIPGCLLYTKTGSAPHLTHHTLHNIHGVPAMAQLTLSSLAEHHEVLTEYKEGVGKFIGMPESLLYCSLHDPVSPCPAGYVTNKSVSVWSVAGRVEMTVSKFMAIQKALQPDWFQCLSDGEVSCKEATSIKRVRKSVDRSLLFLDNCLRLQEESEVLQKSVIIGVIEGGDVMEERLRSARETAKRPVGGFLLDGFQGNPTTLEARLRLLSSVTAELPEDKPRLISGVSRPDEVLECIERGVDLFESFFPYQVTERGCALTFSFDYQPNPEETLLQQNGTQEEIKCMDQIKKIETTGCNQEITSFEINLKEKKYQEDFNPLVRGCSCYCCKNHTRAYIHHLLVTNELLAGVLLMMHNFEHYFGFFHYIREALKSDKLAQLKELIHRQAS

With `Nc1nc2[nH]cc(CNOCCc3ccccc3)c2c(=O)[nH]1` [Example 1, 2-Amino-5-((phenethoxyamino)methyl)-3,7-dihydro-4H-pyrrolo[2,3-d]pyrimidin-4-one], the “Level of IL6 expression compared to vehicle” value in the assay with RASFCs was “Reduction to 17%”.

As to `CO/N=C/c1c[nH]c2nc(N)[nH]c(=O)c12` [Example 2, 2-Amino-4-oxo-4,7-dihydro-3H-pyrrolo[2,3-d]pyrimidine-5-carbaldehyde O-methyl oxime], in the assay on RASFCs, the “Level of IL6 expression compared to vehicle” value was “Reduction to 15%”. On the same count and under the same terms, in the case of `Nc1nc2[nH]cc(/C=N/O)c2c(=O)[nH]1` [Example 4, 2-Amino-4-oxo-4,7-dihydro-3H-pyrrolo[2,3-d]pyrimidine-5-carbaldehyde oxime] it was “Reduction to 15%”; in that of `C[C@@H]1CCN(C(=O)CC#N)C[C@@H]1N(C)c1ncnc2[nH]ccc12` [Tofacitinib, reference compound], “Reduction to 58%”. Consider `Nc1nc2[nH]cc(CN[C@H]3C=C[C@H](O)[C@@H]3O)c2c(=O)[nH]1` [queuine base, queuine], for which the “displacement of the [14C] guanine” value in assay [1] is above 98%.
